# According to US10202387B2, “Heterocyclyl linked imidazopyridazine derivatives as PI3KB inhibitors” (Janssen Pharmaceutica NV, priority 2014, dated 2019):
# Tests used:
# [1] = molecular target: T1, MTOR_h (Homo sapiens, UniProt P42345); assay: Enzyme binding assay (KINOMEscan); conditions: DiscoveRx
# T1 construct: purchased DiscoveRx Corporation, San Diego (KINOMEscan service)
# Experimental: (§1) Enzyme Binding Assays (KINOMEscan®)
# (§2) Kinase enzyme binding affinities of compounds disclosed herein were determined using the KINOMEscan technology performed by DiscoveRx Corporation, San Diego, Calif., USA (www.kinomescan.com). Table A reports the obtained Kd values (nM), with the Kd being the inhibitor binding constant: […]
# [2] = molecular target: T2, PIK3Cα_h (Homo sapiens, UniProt P42336); assay: Enzyme binding assay (KINOMEscan); conditions: DiscoveRx
# T2 construct: purchased DiscoveRx Corporation, San Diego (KINOMEscan service)
# T2 sequence (P42336 whole entry): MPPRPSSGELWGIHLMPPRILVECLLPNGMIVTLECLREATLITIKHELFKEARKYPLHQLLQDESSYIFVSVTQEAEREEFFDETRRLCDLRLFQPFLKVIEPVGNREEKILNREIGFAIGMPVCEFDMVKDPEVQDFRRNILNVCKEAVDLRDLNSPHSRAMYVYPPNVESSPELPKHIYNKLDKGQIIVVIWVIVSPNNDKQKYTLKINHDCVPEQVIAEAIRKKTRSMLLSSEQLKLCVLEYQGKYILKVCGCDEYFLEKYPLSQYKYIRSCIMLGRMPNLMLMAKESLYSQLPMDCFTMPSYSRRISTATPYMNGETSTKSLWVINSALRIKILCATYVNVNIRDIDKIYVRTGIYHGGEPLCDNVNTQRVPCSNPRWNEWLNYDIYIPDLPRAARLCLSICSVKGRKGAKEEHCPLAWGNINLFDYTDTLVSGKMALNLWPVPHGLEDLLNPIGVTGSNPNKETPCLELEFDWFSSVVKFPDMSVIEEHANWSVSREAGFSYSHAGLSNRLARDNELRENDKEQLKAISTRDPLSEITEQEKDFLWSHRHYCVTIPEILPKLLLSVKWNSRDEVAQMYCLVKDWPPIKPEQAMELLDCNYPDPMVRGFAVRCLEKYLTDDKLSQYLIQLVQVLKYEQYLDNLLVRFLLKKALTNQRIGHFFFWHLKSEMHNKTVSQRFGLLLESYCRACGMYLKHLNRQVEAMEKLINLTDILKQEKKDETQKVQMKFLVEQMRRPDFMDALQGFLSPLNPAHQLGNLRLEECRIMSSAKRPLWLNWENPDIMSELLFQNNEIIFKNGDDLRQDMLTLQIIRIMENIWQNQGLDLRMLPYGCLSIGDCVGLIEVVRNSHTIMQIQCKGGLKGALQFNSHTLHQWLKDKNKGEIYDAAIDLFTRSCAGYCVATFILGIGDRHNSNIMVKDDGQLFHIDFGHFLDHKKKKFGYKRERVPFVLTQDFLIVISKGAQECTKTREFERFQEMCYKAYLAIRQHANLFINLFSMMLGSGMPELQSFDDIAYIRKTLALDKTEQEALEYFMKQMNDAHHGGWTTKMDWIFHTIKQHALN
# Experimental: as §1, §2
# [3] = molecular target: T3, PIK3Cβ_h (Homo sapiens, UniProt P42338); assay: Enzyme binding assay (KINOMEscan); conditions: DiscoveRx
# T3 construct: purchased DiscoveRx Corporation, San Diego (KINOMEscan service)
# T3 sequence (P42338 whole entry): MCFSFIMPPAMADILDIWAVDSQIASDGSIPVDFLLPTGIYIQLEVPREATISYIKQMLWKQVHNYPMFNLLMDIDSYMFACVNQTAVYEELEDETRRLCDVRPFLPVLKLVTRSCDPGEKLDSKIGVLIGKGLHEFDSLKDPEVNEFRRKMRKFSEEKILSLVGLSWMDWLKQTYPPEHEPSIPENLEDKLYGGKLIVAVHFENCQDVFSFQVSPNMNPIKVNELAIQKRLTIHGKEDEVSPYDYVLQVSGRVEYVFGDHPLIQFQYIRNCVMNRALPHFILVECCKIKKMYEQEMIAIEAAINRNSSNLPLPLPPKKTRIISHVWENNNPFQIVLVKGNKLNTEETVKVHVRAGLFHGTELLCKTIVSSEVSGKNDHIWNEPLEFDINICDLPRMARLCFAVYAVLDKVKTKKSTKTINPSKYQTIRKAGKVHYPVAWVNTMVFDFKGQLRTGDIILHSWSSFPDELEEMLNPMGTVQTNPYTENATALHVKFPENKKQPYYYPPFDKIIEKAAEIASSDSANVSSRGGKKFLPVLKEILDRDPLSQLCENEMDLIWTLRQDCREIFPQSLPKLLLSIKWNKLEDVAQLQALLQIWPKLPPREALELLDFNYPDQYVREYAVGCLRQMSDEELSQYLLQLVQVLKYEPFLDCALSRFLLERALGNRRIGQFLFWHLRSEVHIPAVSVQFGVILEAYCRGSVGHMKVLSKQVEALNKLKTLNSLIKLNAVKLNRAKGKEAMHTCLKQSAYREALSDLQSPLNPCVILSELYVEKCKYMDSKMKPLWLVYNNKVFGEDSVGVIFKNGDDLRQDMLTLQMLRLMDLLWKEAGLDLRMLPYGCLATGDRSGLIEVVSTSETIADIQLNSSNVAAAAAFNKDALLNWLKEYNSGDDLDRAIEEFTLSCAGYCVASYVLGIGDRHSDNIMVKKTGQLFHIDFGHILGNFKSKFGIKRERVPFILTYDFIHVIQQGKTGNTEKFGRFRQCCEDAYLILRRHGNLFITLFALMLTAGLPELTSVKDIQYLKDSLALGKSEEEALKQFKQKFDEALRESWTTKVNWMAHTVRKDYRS
# Experimental: as §1, §2
# [4] = molecular target: T4, PIK3Cγ_h (Homo sapiens, UniProt P48736); assay: Enzyme binding assay (KINOMEscan); conditions: DiscoveRx
# T4 construct: purchased DiscoveRx Corporation, San Diego (KINOMEscan service)
# T4 sequence (P48736 whole entry): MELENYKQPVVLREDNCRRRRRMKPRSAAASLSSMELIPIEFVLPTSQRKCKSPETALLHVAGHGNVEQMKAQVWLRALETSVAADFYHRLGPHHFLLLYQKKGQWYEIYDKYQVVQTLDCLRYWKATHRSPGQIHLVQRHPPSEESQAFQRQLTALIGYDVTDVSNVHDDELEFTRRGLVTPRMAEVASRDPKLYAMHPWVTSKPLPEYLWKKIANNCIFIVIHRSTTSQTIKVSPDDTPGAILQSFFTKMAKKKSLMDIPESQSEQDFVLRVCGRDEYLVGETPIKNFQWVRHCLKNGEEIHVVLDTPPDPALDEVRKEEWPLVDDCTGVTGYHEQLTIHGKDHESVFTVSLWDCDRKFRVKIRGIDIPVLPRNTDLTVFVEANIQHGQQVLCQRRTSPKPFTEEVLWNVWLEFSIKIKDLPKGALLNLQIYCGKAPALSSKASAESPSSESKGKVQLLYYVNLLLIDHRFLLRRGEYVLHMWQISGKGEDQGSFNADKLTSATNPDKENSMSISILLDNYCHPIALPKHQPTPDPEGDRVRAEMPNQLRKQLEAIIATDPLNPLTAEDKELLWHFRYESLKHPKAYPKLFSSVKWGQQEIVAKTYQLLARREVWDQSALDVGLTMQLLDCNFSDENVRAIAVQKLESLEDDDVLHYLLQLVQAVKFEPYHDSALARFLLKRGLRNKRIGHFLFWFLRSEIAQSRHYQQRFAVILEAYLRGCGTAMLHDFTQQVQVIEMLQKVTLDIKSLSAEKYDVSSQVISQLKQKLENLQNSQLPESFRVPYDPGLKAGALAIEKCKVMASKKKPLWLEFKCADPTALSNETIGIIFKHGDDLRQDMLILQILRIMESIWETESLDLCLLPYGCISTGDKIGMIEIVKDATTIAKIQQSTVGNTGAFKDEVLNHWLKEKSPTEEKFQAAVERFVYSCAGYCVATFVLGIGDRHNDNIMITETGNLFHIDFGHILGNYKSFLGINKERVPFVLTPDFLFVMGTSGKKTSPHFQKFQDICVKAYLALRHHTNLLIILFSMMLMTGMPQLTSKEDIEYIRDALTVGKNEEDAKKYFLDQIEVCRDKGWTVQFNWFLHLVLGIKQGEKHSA
# Experimental: as §1, §2
# [5] = molecular target: T5, PIK3Cδ_h (Homo sapiens, UniProt O00329); assay: Enzyme binding assay (KINOMEscan); conditions: DiscoveRx
# T5 construct: purchased DiscoveRx Corporation, San Diego (KINOMEscan service)
# T5 sequence (O00329 1-1044): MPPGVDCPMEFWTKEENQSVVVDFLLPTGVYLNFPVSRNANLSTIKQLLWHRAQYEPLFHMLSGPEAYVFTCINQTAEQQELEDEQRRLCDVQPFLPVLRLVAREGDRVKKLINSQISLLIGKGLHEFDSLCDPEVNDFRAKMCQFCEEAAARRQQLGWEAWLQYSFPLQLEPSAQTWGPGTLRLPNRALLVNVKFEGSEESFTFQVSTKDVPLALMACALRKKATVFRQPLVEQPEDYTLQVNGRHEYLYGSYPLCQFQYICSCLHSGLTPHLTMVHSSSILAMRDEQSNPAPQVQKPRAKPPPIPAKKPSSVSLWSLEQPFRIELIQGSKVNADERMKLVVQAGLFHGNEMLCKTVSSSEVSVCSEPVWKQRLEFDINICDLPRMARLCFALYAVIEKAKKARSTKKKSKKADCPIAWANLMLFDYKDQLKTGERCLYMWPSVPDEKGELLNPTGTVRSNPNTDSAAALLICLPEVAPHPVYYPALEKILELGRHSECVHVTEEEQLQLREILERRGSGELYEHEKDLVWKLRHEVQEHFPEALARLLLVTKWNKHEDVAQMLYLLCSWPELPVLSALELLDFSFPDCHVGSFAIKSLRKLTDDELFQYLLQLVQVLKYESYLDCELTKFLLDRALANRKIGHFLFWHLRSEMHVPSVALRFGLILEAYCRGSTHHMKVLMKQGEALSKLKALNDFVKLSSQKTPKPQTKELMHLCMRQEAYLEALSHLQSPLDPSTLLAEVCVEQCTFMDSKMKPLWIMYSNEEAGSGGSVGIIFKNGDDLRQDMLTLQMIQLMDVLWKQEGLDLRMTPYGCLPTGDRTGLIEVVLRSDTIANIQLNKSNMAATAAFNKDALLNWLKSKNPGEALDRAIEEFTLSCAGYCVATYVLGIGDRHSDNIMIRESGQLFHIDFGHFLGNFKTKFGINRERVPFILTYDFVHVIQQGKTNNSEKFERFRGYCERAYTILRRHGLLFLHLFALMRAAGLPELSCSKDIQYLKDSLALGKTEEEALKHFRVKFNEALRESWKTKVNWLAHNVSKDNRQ
# Experimental: as §1, §2
# [6] = system: Akt phosphorylated at Ser473 in PC-3 cells; assay: Cellular assay: phosphorylation of Akt (Ser473) in PC-3 cells, MSD ELISA; assay type: cell-based; conditions: Homo sapiens, 1 h, 60 min incubation with compound, read-out: IC50 pAkt_S473
# Experimental: (§3) Cellular activity of PI3Kβ inhibitors was determined by quantifying the phosphorylation of Akt in PC-3 cells. Akt phosphorylated at Ser473 and Thr308 were measured using an enzyme-linked immunosorbent assay (ELISA; Meso Scale Discovery (MSD). Gaithersburg, Md.) and specific primary antibodies from MSD.
# (§4) On day 1, PC3 cells (ATCC […]) were seeded into PerkinElmer MW96 plates at 25.000 cells per well, in 75 μl complete culture medium (DMEM (Dulbecco's Modified Eagle's Medium) high glucose. AQmedia™, D0819, Sigma-Aldrich) containing 10% heat inactivated FCS (Fetal Bovine Serum) and incubated at 37° C., 5% CO2 during 24 hours. On day 2, compound or DMSO (dimethyl sulfoxide) (0.3%) was added and cells were further incubated for 60 min at 37° C., 5% CO2 in a total volume of 100 μl of medium.
# (§5) The phosphoprotein assay was executed according to vendor instructions in the Phospho-Akt (Ser473) Assay Whole Cell Lysate Kit (MSD #K15100D-3) and the Phospho-Akt (Thr308) Assay Whole Cell Lysate Kit (MSD #K151DYD-3) using the lysis, blocking and wash buffer provided.
# (§6) Briefly, at the end of the cell treatment period, media were removed by aspiration and adherent cells were lysed in 50 μl ice-cold lysis buffer. MSD plates are supplied pre-coated with capture antibodies for Phospho-Akt (Ser473 and Thr308). After blocking, lysates from tissue culture plates were added and plates were washed. Then, a solution containing the detection antibody (anti-total Akt conjugated with an electrochemiluminescent compound-MSD Sulfo-tag label) was added. The signals were detected using an MSD SECTOR Imager 6000 and are proportional to the phospho-Akt titres.
# (§7) Data were processed. The percentage of inhibition was plotted against the log concentration of test compounds, and the sigmoidal log concentration-effect curve of best fit was calculated by nonlinear regression analysis. From these concentration-response curves, the IC50 values were calculated. Five concentrations were used for curve fitting.
# [7] = system: Akt phosphorylated at Thr308 in PC-3 cells; assay: Cellular assay: phosphorylation of Akt (Thr308) in PC-3 cells, MSD ELISA; assay type: cell-based; conditions: Homo sapiens, 1 h, 60 min incubation with compound, read-out: IC50 pAkt_Thr308
# Experimental: as §3, §4, §5, §6, §7
Kd [1],Kd [2],Kd [3],Kd [4],Kd [5],IC50 [6],IC50 [7],SMILES
11 µM,11.5 µM,0.0017 µM,16.2 µM,0.191 µM,~0.089 µM,0.066 µM,Cc1c(Cc2c(CN3CC(O)C3)nc3c(N)cc(N4CCOCC4)nn23)cccc1C(F)(F)F [Compound 3]
11.4 µM,0.436 µM,0.0005 µM,27.6 µM,0.008 µM,0.004 µM,0.003 µM,Cc1c(Cc2c(CN3CC4(C3)CS(=O)(=O)C4)nc3c(N)cc(N4CCOCC4)nn23)cccc1C(F)(F)F [Compound 7]
5.75 µM,4.79 µM,0.0006 µM,> 30.2 µM,0.052 µM,~0.042 µM,~0.048 µM,Cc1c(Cc2c(CN3CC(C)NC(C)C3)nc3c(N)cc(N4CCOCC4)nn23)cccc1C(F)(F)F (stereo not drawn) [Compound 10]
11 µM,18.6 µM,0.0017 µM,8.51 µM,0.089 µM,0.085 µM,~0.087 µM,Cc1c(Cc2c(CN3CCCC4(CNC4)C3)nc3c(N)cc(N4CCOCC4)nn23)cccc1C(F)(F)F [Compound 12]
2 µM,0.453 µM,0.0007 µM,5.7 µM,0.017 µM,0.038 µM,0.028 µM,Cc1c(Cc2c(CN3CC(C)NC(C)C3)nc3c(-c4cnc[nH]4)cc(N4CCOCC4)nn23)cccc1C(F)(F)F (stereo not drawn) [Compound 16]
21.4 µM,0.372 µM,0.0002 µM,15.1 µM,0.013 µM,> 0.513 µM,> 0.513 µM,Cc1c(Cc2c(CN3CC4(C3)CS(=O)(=O)C4)nc3c(C(=O)O)cc(N4CCOCC4)nn23)cccc1C(F)(F)F [Compound 28]
> 30.2 µM,6.31 µM,0.0007 µM,28.2 µM,0.112 µM,> 0.513 µM,> 0.513 µM,Cc1c(Cc2c(CN3CC4(CC(O)C4)C3)nc3c(C(=O)O)cc(N4CCOCC4)nn23)cccc1C(F)(F)F [Compound 29]
18.2 µM,6.31 µM,0.0015 µM,> 30.2 µM,0.224 µM,0.087 µM,~0.074 µM,Cc1c(Cc2c(CN3CCC4(CCS(=O)(=O)C4)C3)nc3c(N)cc(N4CCOCC4)nn23)cccc1C(F)(F)F (stereo not drawn) [Compound 34]
7.39 µM,3.55 µM,0.0003 µM,11.7 µM,0.082 µM,0.044 µM,0.038 µM,Cc1c(Cc2c(CNC(=O)[C@@H]3CCCN3C)nc3c(N)cc(N4CCOCC4)nn23)cccc1C(F)(F)F [Compound 39]
6.76 µM,5.37 µM,0.0004 µM,21.4 µM,0.048 µM,0.06 µM,0.018 µM,Cc1c(Cc2c(CNC(=O)[C@@H]3C[C@@H](O)CN3C)nc3c(N)cc(N4CCOCC4)nn23)cccc1C(F)(F)F [Compound 41]

# Further lines, the molecule ahead of its results:
SMILES,Kd [1],Kd [2],Kd [3],Kd [4],Kd [5],IC50 [6],IC50 [7]
Cc1c(Cc2c(CN3CCC(CS(C)(=O)=O)CC3)nc3c(N)cc(N4CCOCC4)nn23)cccc1C(F)(F)F [Compound 5],> 30.2 µM,12 µM,0.0036 µM,> 30.2 µM,0.219 µM,~0.132 µM,0.071 µM
Cc1c(Cc2c(CN3CC4(CCCNC4)C3)nc3c(N)cc(N4CCOCC4)nn23)cccc1C(F)(F)F [Compound 13],3.55 µM,1.38 µM,0.0002 µM,0.977 µM,0.007 µM,0.028 µM,0.044 µM
Cc1c(Cc2c(CN3CCC(N)CC3)nc3c(N)cc(N4CCOCC4)nn23)cccc1C(F)(F)F [Compound 14],13.8 µM,7.41 µM,0.0003 µM,4.9 µM,0.04 µM,0.068 µM,0.069 µM
Cc1c(Cc2c(CN3CCCC(CO)C3)nc3c(-c4cnc[nH]4)cc(N4CCOCC4)nn23)cccc1C(F)(F)F (stereo not drawn) [Compound 15],7.76 µM,0.537 µM,0.0014 µM,2.19 µM,0.022 µM,0.03 µM,~0.041 µM
Cc1c(Cc2c(CN3CC(C)NC(C)C3)nc3c(-c4ncc[nH]4)cc(N4CCOCC4)nn23)cccc1C(F)(F)F (stereo not drawn) [Compound 18],6.07 µM,0.475 µM,0.0008 µM,3.89 µM,0.014 µM,0.095 µM,0.051 µM
Cc1c(Nc2c(CN3CC(C)NC(C)C3)nc3c(C(N)=O)cc(N4CCOCC4)nn23)cccc1C(F)(F)F (stereo not drawn) [Compound 21],20 µM,1.29 µM,0.0011 µM,4.17 µM,0.129 µM,0.107 µM,~0.069 µM
Cc1c(Cc2c(CN3CC4(CC(O)C4)C3)nc3c(-c4cnc[nH]4)cc(N4CCOCC4)nn23)cccc1C(F)(F)F [Compound 27],1.55 µM,0.24 µM,0.0004 µM,0.589 µM,0.01 µM,0.062 µM,0.043 µM
[2H]C1([2H])OC([2H])([2H])C([2H])([2H])N(c2cc(N)c3nc(CN4CC5(C4)CS(=O)(=O)C5)c(Cc4cccc(C(F)(F)F)c4C)n3n2)C1([2H])[2H] [Compound 30],8.13 µM,0.617 µM,0.0003 µM,20 µM,0.012 µM,0.004 µM,0.004 µM
Cc1c(Cc2c(CN3CCCC34CCS(=O)(=O)C4)nc3c(N)cc(N4CCOCC4)nn23)cccc1C(F)(F)F (stereo not drawn) [Compound 31],> 30.2 µM,> 30.2 µM,0.0048 µM,> 30.2 µM,0.479 µM,0.117 µM,0.066 µM
Cc1c(Cc2c(CNC(=O)[C@@H]3CCCN3)nc3c(N)cc(N4CCOCC4)nn23)cccc1C(F)(F)F [Compound 35],3.22 µM,2.05 µM,0.0002 µM,8.64 µM,0.007 µM,0.027 µM,0.018 µM
Cc1c(Cc2c(CNC(=O)[C@@H]3C[C@@H](F)CN3)nc3c(N)cc(N4CCOCC4)nn23)cccc1C(F)(F)F [Compound 38],0.355 µM,1 µM,0.0002 µM,> 30.2 µM,0.014 µM,0.054 µM,0.031 µM
